Measured values published in US5441936A, “Antiviral peptides” (priority 1993, dated 1995).
Non-standard residues stand in square brackets, D forms with d. Residues, ends and D or L forms follow the SMILES beside them.

System: Herpes Simplex Virus Type-1
Assay: Herpes Simplex Virus Type-1 plaque inhibition assay in Vero cells
Assay type: cell-based, Herpes simplex type 1 virus (HSV-1)
Settings: Vero cells infected with 50 to 60 pfu HSV-1; peptide added after 2 hr virus incubation; concentration that inhibited growth of 50% of the input HSV-1
Description: Vero cells were seeded into 24-we! l tissue culture plates 24 to 48 hr prior to performing the plaque assay. Herpes simplex type 1 virus (HSV-1) was diluted to 50 to 60 plaque forming units (pfu)/0.1 ml Medium 199 and 0.1 ml was added to the cells. Control cultures received 0.1 ml Medium 199 without HSV-1. Plates were incubated for 2 hr at 37° C. in 5% carbon dioxide.
Following incubation of the cells with or without HSV-1, the medium was removed by aspiration. The peptides to be tested for antiviral activity were diluted in Dulbecco's modified Eagle's medium supplemented with 0.2% human gamma globulin, 5% fetal bovine serum, 10 units/ml penicillin and 5μg/ml streptomycin and 1 ml of the peptide solution was added to each of duplicate wells. Medium only was added to wells labelled for input virus or cell controls.
Cells were observed by microscopy at 24 and 48 hr to identify toxicity due to the peptides. Following the incubation period, medium was removed by aspiration and the cultures were fixed using methanol and stained with 0.037% Geimsa for 45 min. The stain was removed and the plates were rinsed and allowed to air dry. The concentration of peptide that inhibited growth of 50% of the input HSV-1 (IC50) was determined for each peptide by counting the number of viral plaques present in the peptide-treated wells as compared with the input virus control wells.
Using the plaque inhibition assay, a peptide was considered to have no antiviral effect in this assay if greater than 100 μg/ml of the peptide was required to inhibit growth of 50% of the input HSV-1.

Compound | Herpes Simplex Virus Type-1 Plaque Inhibition IC50
CC(=O)N[C@H](CCCNC(=N)N)C(=O)N[C@H](CCCNC(=N)N)C(=O)N[C@H](Cc1c[nH]c2ccccc12)C(=O)N[C@H](Cc1c[nH]c2ccccc12)C(=O)N[C@H](CS)C(=O)N[C@H](CCCNC(=N)N)C(=O)N[C@H](C)C(N)=O [Ac-Arg-Arg-Trp-Trp-Cys-Arg-Ala-NH2] | 35 µg/mL
CC(=O)N[C@H](CCCNC(=N)N)C(=O)N[C@H](CCCNC(=N)N)C(=O)N[C@H](Cc1c[nH]c2ccccc12)C(=O)N[C@H](Cc1c[nH]c2ccccc12)C(=O)N[C@H](CS)C(=O)N[C@H](CCCNC(=N)N)C(=O)N[C@H](CCCNC(=N)N)C(N)=O [Ac-Arg-Arg-Trp-Trp-Cys-Arg-Arg-NH2] | 62 µg/mL
CC(=O)N[C@H](CCCNC(=N)N)C(=O)N[C@H](CCCNC(=N)N)C(=O)N[C@H](Cc1c[nH]c2ccccc12)C(=O)N[C@H](Cc1c[nH]c2ccccc12)C(=O)N[C@H](CS)C(=O)N[C@H](CCCNC(=N)N)C(=O)N[C@H](CC(N)=O)C(N)=O [Ac-Arg-Arg-Trp-Trp-Cys-Arg-Asn-NH2] | 85 µg/mL
CC(=O)N[C@H](CCCNC(=N)N)C(=O)N[C@H](CCCNC(=N)N)C(=O)N[C@H](Cc1c[nH]c2ccccc12)C(=O)N[C@H](Cc1c[nH]c2ccccc12)C(=O)N[C@H](CS)C(=O)N[C@H](CCCNC(=N)N)C(=O)N[C@H](CC(=O)O)C(N)=O [Ac-Arg-Arg-Trp-Trp-Cys-Arg-Asp-NH2] | > 100 µg/mL
CC(=O)N[C@H](CCCNC(=N)N)C(=O)N[C@H](CCCNC(=N)N)C(=O)N[C@H](Cc1c[nH]c2ccccc12)C(=O)N[C@H](Cc1c[nH]c2ccccc12)C(=O)N[C@H](CS)C(=O)N[C@H](CCCNC(=N)N)C(=O)N[C@H](CS)C(N)=O [Ac-Arg-Arg-Trp-Trp-Cys-Arg-Cys-NH2] (Ac-[dR][dR][dW][dW][dC][dR][dC]-NH2) | 50 µg/mL
CC(=O)N[C@H](CCCNC(=N)N)C(=O)N[C@H](CCCNC(=N)N)C(=O)N[C@H](Cc1c[nH]c2ccccc12)C(=O)N[C@H](Cc1c[nH]c2ccccc12)C(=O)N[C@H](CS)C(=O)N[C@H](CCCNC(=N)N)C(=O)N[C@H](CCC(N)=O)C(N)=O [Ac-Arg-Arg-Trp-Trp-Cys-Arg-Gln-NH2] | 37 µg/mL
CC(=O)N[C@H](CCCNC(=N)N)C(=O)N[C@H](CCCNC(=N)N)C(=O)N[C@H](Cc1c[nH]c2ccccc12)C(=O)N[C@H](Cc1c[nH]c2ccccc12)C(=O)N[C@H](CS)C(=O)N[C@H](CCCNC(=N)N)C(=O)N[C@H](CCC(=O)O)C(N)=O [Ac-Arg-Arg-Trp-Trp-Cys-Arg-Glu-NH2] | > 100 µg/mL
CC(=O)N[C@H](CCCNC(=N)N)C(=O)N[C@H](CCCNC(=N)N)C(=O)N[C@H](Cc1c[nH]c2ccccc12)C(=O)N[C@H](Cc1c[nH]c2ccccc12)C(=O)N[C@H](CS)C(=O)N[C@H](CCCNC(=N)N)C(=O)NCC(N)=O [Ac-Arg-Arg-Trp-Trp-Cys-Arg-Gly-NH2] | > 100 µg/mL
CC(=O)N[C@H](CCCNC(=N)N)C(=O)N[C@H](CCCNC(=N)N)C(=O)N[C@H](Cc1c[nH]c2ccccc12)C(=O)N[C@H](Cc1c[nH]c2ccccc12)C(=O)N[C@H](CS)C(=O)N[C@H](CCCNC(=N)N)C(=O)N[C@H](Cc1c[nH]cn1)C(N)=O [Ac-Arg-Arg-Trp-Trp-Cys-Arg-His-NH2] | > 100 µg/mL
CC[C@@H](C)[C@@H](NC(=O)[C@@H](CCCNC(=N)N)NC(=O)[C@@H](CS)NC(=O)[C@@H](Cc1c[nH]c2ccccc12)NC(=O)[C@@H](Cc1c[nH]c2ccccc12)NC(=O)[C@@H](CCCNC(=N)N)NC(=O)[C@@H](CCCNC(=N)N)NC(C)=O)C(N)=O [Ac-Arg-Arg-Trp-Trp-Cys-Arg-Ile-NH2] | > 100 µg/mL
CC(=O)N[C@H](CCCNC(=N)N)C(=O)N[C@H](CCCNC(=N)N)C(=O)N[C@H](Cc1c[nH]c2ccccc12)C(=O)N[C@H](Cc1c[nH]c2ccccc12)C(=O)N[C@H](CS)C(=O)N[C@H](CCCNC(=N)N)C(=O)N[C@H](CC(C)C)C(N)=O [Ac-Arg-Arg-Trp-Trp-Cys-Arg-Leu-NH2] | 61 µg/mL
CC(=O)N[C@H](CCCNC(=N)N)C(=O)N[C@H](CCCNC(=N)N)C(=O)N[C@H](Cc1c[nH]c2ccccc12)C(=O)N[C@H](Cc1c[nH]c2ccccc12)C(=O)N[C@H](CS)C(=O)N[C@H](CCCNC(=N)N)C(=O)N[C@H](CCCCN)C(N)=O [Ac-Arg-Arg-Trp-Trp-Cys-Arg-Lys-NH2] | 50 µg/mL
CSCC[C@@H](NC(=O)[C@@H](CCCNC(=N)N)NC(=O)[C@@H](CS)NC(=O)[C@@H](Cc1c[nH]c2ccccc12)NC(=O)[C@@H](Cc1c[nH]c2ccccc12)NC(=O)[C@@H](CCCNC(=N)N)NC(=O)[C@@H](CCCNC(=N)N)NC(C)=O)C(N)=O [Ac-Arg-Arg-Trp-Trp-Cys-Arg-Met-NH2] | > 50 µg/mL
CC(=O)N[C@H](CCCNC(=N)N)C(=O)N[C@H](CCCNC(=N)N)C(=O)N[C@H](Cc1c[nH]c2ccccc12)C(=O)N[C@H](Cc1c[nH]c2ccccc12)C(=O)N[C@H](CS)C(=O)N[C@H](CCCNC(=N)N)C(=O)N[C@H](Cc1ccccc1)C(N)=O [Ac-Arg-Arg-Trp-Trp-Cys-Arg-Phe-NH2] | 59 µg/mL
CC(=O)N[C@H](CCCNC(=N)N)C(=O)N[C@H](CCCNC(=N)N)C(=O)N[C@H](Cc1c[nH]c2ccccc12)C(=O)N[C@H](Cc1c[nH]c2ccccc12)C(=O)N[C@H](CS)C(=O)N[C@H](CCCNC(=N)N)C(=O)N1CCC[C@@H]1C(N)=O [Ac-Arg-Arg-Trp-Trp-Cys-Arg-Pro-NH2] | > 100 µg/mL
CC(=O)N[C@H](CCCNC(=N)N)C(=O)N[C@H](CCCNC(=N)N)C(=O)N[C@H](Cc1c[nH]c2ccccc12)C(=O)N[C@H](Cc1c[nH]c2ccccc12)C(=O)N[C@H](CS)C(=O)N[C@H](CCCNC(=N)N)C(=O)N[C@H](CO)C(N)=O [Ac-Arg-Arg-Trp-Trp-Cys-Arg-Ser-NH2] | > 100 µg/mL
CC(=O)N[C@H](CCCNC(=N)N)C(=O)N[C@H](CCCNC(=N)N)C(=O)N[C@H](Cc1c[nH]c2ccccc12)C(=O)N[C@H](Cc1c[nH]c2ccccc12)C(=O)N[C@H](CS)C(=O)N[C@H](CCCNC(=N)N)C(=O)N[C@@H](C(N)=O)[C@H](C)O [Ac-Arg-Arg-Trp-Trp-Cys-Arg-Thr-NH2] | > 100 µg/mL
CC(=O)N[C@H](CCCNC(=N)N)C(=O)N[C@H](CCCNC(=N)N)C(=O)N[C@H](Cc1c[nH]c2ccccc12)C(=O)N[C@H](Cc1c[nH]c2ccccc12)C(=O)N[C@H](CS)C(=O)N[C@H](CCCNC(=N)N)C(=O)N[C@H](Cc1c[nH]c2ccccc12)C(N)=O [Ac-Arg-Arg-Trp-Trp-Cys-Arg-Trp-NH2] | 37 µg/mL
CC(=O)N[C@H](CCCNC(=N)N)C(=O)N[C@H](CCCNC(=N)N)C(=O)N[C@H](Cc1c[nH]c2ccccc12)C(=O)N[C@H](Cc1c[nH]c2ccccc12)C(=O)N[C@H](CS)C(=O)N[C@H](CCCNC(=N)N)C(=O)N[C@H](Cc1ccc(O)cc1)C(N)=O [Ac-Arg-Arg-Trp-Trp-Cys-Arg-Tyr-NH2] | > 100 µg/mL
CC(=O)N[C@H](CCCNC(=N)N)C(=O)N[C@H](CCCNC(=N)N)C(=O)N[C@H](Cc1c[nH]c2ccccc12)C(=O)N[C@H](Cc1c[nH]c2ccccc12)C(=O)N[C@H](CS)C(=O)N[C@H](CCCNC(=N)N)C(=O)N[C@@H](C(N)=O)C(C)C [Ac-Arg-Arg-Trp-Trp-Cys-Arg-Val-NH2] | 58 µg/mL
